Laboratory results reported in US12098395B2, “Polypeptide with function of targeting recognition of immune cells and application thereof” (Keyangle Life Technology Co., Ltd., priority 2018, dated 2024).
No end group written: not given here. code X = not defined here

Legend:
[1] = test system: mouse peritoneal macrophages; assay: In vivo fluorescent labeling of macrophages in a mouse abdominal cavity; design: species or system Kunming mice; conditions: for recognition of macrophages in vivo: conclusion from Table 1, mouse peritoneal macrophages; for fluorescent labeling of macrophages extracted from the mouse abdominal cavity: labeled in vivo by intraperitoneal injection, cells extracted after 4 hours, Nucblue double-stain
Procedure: Dilute 300 μL of 50 μM EK24 fluorescent probe solution with serum-free DMEM incomplete medium to obtain 1 mL of solution, then inject into the abdominal cavity of 5-8 weeks old Kunming mice. After 4 hours, inject 5 mL of 1×PBS and massage. After 10 minutes, sacrifice the mice by cervical vertebra dislocation. Cut the abdominal cavity skin of the mice, pierce the abdominal wall muscle by a syringe, and extract the fluid in the abdominal cavity of the mice. Centrifuge the extracted peritoneal fluid at 1000 rpm for 5 min, wash twice with 1×PBS. Add appropriate amount of cells to a 96-well plate and double-stain with a nuclear dye Nucblue (Invitrogen). Observe under fluorescence microscope (light source 10%, exposure 200 ms, gain 5) after the suspended cells were settled down at the bottom of the plate.
Table 1 lists probes, which contain the polypeptide fragments from the C-terminal fragments of Triokinases/FMN cyclases of different species and were prepared by a similar process as described in Examples 1 and 2, and in vivo imaging results of mouse peritoneal macrophages using these probes.

[2] = test system: monocyte precursors from mouse bone marrow; assay: Fluorescence labeling of mouse primary monocyte precursors at different incubation times; assay type: cell-based; conditions: incubating only for 10 min
Procedure: Referring to Example 7, using the same treatment process, the monocyte precursors from mouse bone marrow were obtained. After culturing for 6 days, the cultured cells were labeled with […] fluorescent probe over different incubation times. Then the cells were observed under a fluorescence microscope (20×, light source 20%, exposure 200 ms, gain 5).
Nucblue was further used for nuclear staining. In each of FIGS. 18A, 18B, 18C, and 18D, i) is an image labeled with the […] fluorescent probe (shown in red in the original fluorescence color image), and ii) is an image obtained by nuclear staining with Nucblue (shown in blue in the original fluorescence color image), and iii) is a merged image of i) and ii).

[3] = test system: bone marrow monocyte precursors of New Zealand White Rabbit; assay: In vitro fluorescent labeling of primary monocyte precursors of New Zealand White Rabbit; assay type: cell-based
Source text: With a similar process to Example 7, bone marrow monocyte precursors of New Zealand White Rabbit were taken and cultured, then labeled by using EK24 fluorescent probe and Nucblue. Then the cells were observed under a fluorescence microscope (20×, light source 10%, exposure 200 ms, gain 5).

[4] = test system: cultured peritoneal macrophages and mesenteric digestive cells; assay: Selective labeling of cultured peritoneal macrophages among cells released from enzyme-digested mesenterium; assay type: cell-based, Kunming mice; conditions: peritoneal cells and trypsin-digested mesenteries cultured 3 days
Procedure: Take 5 to 8 week-old Kunming mice, inject intraperitoneally with 5 mL of serum-free DMEM incomplete medium. After 1 hour, sacrifice the mice by cervical vertebra dislocation. Make an incision on the skin of abdominal cavity, pierce the abdominal wall muscle using a syringe, and extract the fluid in the abdominal cavity of the mice. Wash twice with 1×PBS, collect peritoneal cells by centrifugation. Also take the mesenteries of the Kunming mice and purge twice with 1×PBS in centrifuge tubes. Incubate the obtained peritoneal cells and mesenteries in 0.25% trypsin solution and digest for 30 minutes. Enrich the cells by centrifugation, and then culture for 3 days in a 96-well plate using F12/DMEM culture solution containing 10% FBS and 1% streptomycin-penicillin. Referring to Example 5, label with the EK24 fluorescent probe and Nucblue. Then the cells were observed under a fluorescence microscope (20×, light source 10%, exposure 200 ms, gain 5).

[5] = test system: cultured macrophages isolated from mouse peritoneal cavity; assay: In vitro fluorescent labeling of cultured macrophages isolated from mouse peritoneal cavity, co-staining with F4/80 antibody; assay type: cell-based; conditions: 10 μM EK24 premixed with F4/80 antibody, 1 h at 37° C.
Procedure: Inject 5 mL of serum-free DMEM incomplete medium into the abdominal cavity of 5 to 8 weeks old mice, massage the abdominal cavity gently for 10 min, and sacrifice the mice by cervical vertebra dislocation. Extract the fluid from the abdominal cavity gently with a syringe, inject into a 5 mL centrifuge tube and centrifuge at 1000 rpm for 5 min, remove the supernatant, and resuspend the collected ex-vivo cells in DMEM/F12 medium containing 10% FBS, then add into a 96-well plate for culture. Generally, if cells are taken intraperitoneally for in vitro culture, macrophages would tend to adhere to bottom of the well, and other cells would be washed off. The cells were cultured for more than 2 days until the cells attached the bottom firmly. At this time, the cells remaining in the wells were basically macrophages. Select two wells, one as a control and the other as an experimental well. The cells of the control were nuclear stained with Nucblue. The experimental well was added with a premix of AlexaFluor®488 anti-mouse F4/80 antibody (Biolegend) and EK24 fluorescent probe, and then incubated for 1 h at 37° C. The premix contained 10 μM of EK24 solution and 2 μL of Alexa Fluor®488 anti-mouse F4/80 antibody diluted with 100 μL of serum-free DMEM incomplete medium. […] The cells were observed under a fluorescence microscope (20×objective lens, light source 10%, exposure 200 ms, gain 5).

[6] = test system: macrophages on mouse abdominal wall; assay: In vivo fluorescent labeling of macrophages on mouse abdominal wall with CD68 antibody co-staining; conditions: in vivo injection, abdominal wall muscle removed
Procedure: Referring to Example 4, using the same drug injection process, inject EK24, and FITC anti-mouse CD68 antibody (Biolegend) which was diluted with PBS from 2 μL to 500 μL. Remove mouse abdominal wall muscle for Nucblue double-staining and then observing under a fluorescence microscope (20×, light source 50%, exposure 200 ms, gain 5).

[7] = test system: monocyte precursors from rat bone marrow; assay: In vitro fluorescent labeling of rat primary monocyte precursors; assay type: cell-based
Source text: With a similar process to Example 7, mononuclear cell precursors from rat femoral bone marrow were taken and cultured, and then labeled by using EK24 fluorescent probe and Nucblue. Then the cells were observed under a fluorescence microscope (20×, light source 10%, exposure 200 ms, gain 5).

[8] = test system: mouse macrophage cell line RAW264.7; assay: In vitro fluorescence labeled staining of a mouse macrophage cell line; assay type: cell-based; conditions: 10 μM probe, 1 h incubation
Procedure: Culture the mouse macrophage cell line RAW264.7 in a 96-well plate, wash the wells once with 1×PBS buffer or a serum-free DMEM incomplete medium, remove the washing liquid, add EK24 solution of 10 μM which had been diluted with 100 μL of serum-free DMEM incomplete medium, and incubate in a cell culture incubator for 1 h. After that, wash the wells twice with 1×PBS buffer or the serum-free DMEM incomplete medium. Then, add DMEM complete medium containing 10% FBS and 1% streptomycin-penicillin, and double-stain the cells using nuclear dye Nucblue, and observe under EVOS® FL Auto fluorescence microscope (Life Technologies, light source 10%, exposure 200 ms, gain 5).

[9] = test system: primary macrophages from rat peritoneal cavity; assay: In vitro fluorescent labeling of primary macrophages from rat peritoneal cavity; assay type: cell-based, SD rats; conditions: cultured more than 2 days
Procedure: With the same process as in Example 5, extract cells from the abdominal cavity of 5 to 8 weeks old SD rats using 20 mL serum-free DMEM incomplete medium and culture the cells in a 96-well plate. After culturing for more than 2 days, until the cells attached the bottom firmly, a well was selected and added with EK24 fluorescent probe for incubation. Then the cells were observed under a fluorescence microscope (20×, light source 10%, exposure 200 ms, gain 5).

## LQPDPGAVAAAAVLRAVLEGLQG-Y (LQPDPGAVAAAAVLRAVLEGLQGY; also: C-terminal reporter Y, nature not defined) [LK24, Chicken Triokinase/FMN cyclase C-terminal peptide probe, Y = reporter or cysteine/lysine + reporter]
[1]
  recognition of macrophages in vivo: can effectively recognize macrophages in vivo
  fluorescent labeling of macrophages extracted from the mouse abdominal cavity: can be labeled

## X-EDQPDPGAVAAAAILRAILEVLQS ({code X}-EDQPDPGAVAAAAILRAILEVLQS; reading uncertain; also: N-terminal reporter X, nature not defined, printed as X-EDQPDPGAVAAAAILRAILEVLQS) [KS24, Human Triokinase/FMN cyclase C-terminal peptide probe, X = reporter or cysteine/lysine + reporter (rhodamine or FITC)]
[2]
  fluorescence detection with microscope: can be even detected
[1]
  recognition of macrophages in vivo: can effectively recognize macrophages in vivo
  fluorescent labeling of macrophages extracted from the mouse abdominal cavity: can be labeled

## EQPDPGAVAAAAILRAILEVLQS-Y (not fully specified (C-terminus)) [EK24, Human/rhesus Triokinase/FMN cyclase C-terminal peptide; Y is lysine plus rhodamine fluorescent labeling group on the lysine side chain]
[3]
  labeling of monocyte precursors from New Zealand White Rabbit bone marrow mesenchyme: capable of labeling
[4]
  staining of macrophages in mixed culture: only stains macrophages
  staining of non-macrophages in mixed culture: not stain non-macrophages
[5]
  co-localization of probe label with F4/80 antibody label: co-localized on the same cells
[6]
  labeling of macrophages on mouse abdominal wall: can be labeled
  labeling of other cells of mouse abdominal wall: cannot be labeled
[7]
  labeling of monocyte precursors from rat bone marrow mesenchyme: capable of labeling
[8]
  fluorescent labeling of RAW264.7 cells: can be labeled
[9]
  labeling of in vitro cultured primary macrophages from rat peritoneal cavity: can effectively label
[1]
  recognition of macrophages in vivo: can effectively recognize macrophages in vivo
  fluorescent labeling of macrophages extracted from the mouse abdominal cavity: can be labeled

## X-DQPDPGAVAAAAILRAILEVLQSQGA ({code X}-DQPDPGAVAAAAILRAILEVLQSQGA; reading uncertain; also: N-terminal reporter X, nature not defined) [b-KA27, Pig and cattle Triokinase/FMN cyclase C-terminal peptide probe, X = reporter or cysteine/lysine + reporter]
[1]
  recognition of macrophages in vivo: can effectively recognize macrophages in vivo
  fluorescent labeling of macrophages extracted from the mouse abdominal cavity: can be labeled

## X-KNMEAGAGRASYISSARLEQPDPGAVAAAAILRAIL ({code X}-KNMEAGAGRASYISSARLEQPDPGAVAAAAILRAIL; reading uncertain; also: N-terminal reporter X, nature not defined) [KnNL36, Human Triokinase/FMN cyclase C-terminal peptide probe, X = reporter or cysteine/lysine + reporter]
[1]
  recognition of macrophages in vivo: can effectively recognize macrophages in vivo
  fluorescent labeling of macrophages extracted from the mouse abdominal cavity: can be labeled

## X-TKNMEAGAGRASYISSARLEQPDPGAVAAAAILRAILEVLQS ({code X}-TKNMEAGAGRASYISSARLEQPDPGAVAAAAILRAILEVLQS; reading uncertain; also: N-terminal reporter X, nature not defined) [TS42, Human Triokinase/FMN cyclase C-terminal peptide probe, X = reporter or cysteine/lysine + reporter]
[1]
  recognition of macrophages in vivo: can effectively recognize macrophages in vivo
  fluorescent labeling of macrophages extracted from the mouse abdominal cavity: can be labeled

## LEQPDPGAVAAAAILRAILE-Y (LEQPDPGAVAAAAILRAILEY; also: C-terminal reporter Y, nature not defined) [LEK21, Human Triokinase/FMN cyclase C-terminal peptide probe, Y = reporter or cysteine/lysine + reporter]
[1]
  recognition of macrophages in vivo: can effectively recognize macrophages in vivo
  fluorescent labeling of macrophages extracted from the mouse abdominal cavity: can be labeled

## X-DQPDPGAVAAAAILRTILEVLQSQGV ({code X}-DQPDPGAVAAAAILRTILEVLQSQGV; reading uncertain; also: N-terminal reporter X, nature not defined) [d-KV27, Dog Triokinase/FMN cyclase C-terminal peptide probe, X = reporter or cysteine/lysine + reporter]
[1]
  recognition of macrophages in vivo: can effectively recognize macrophages in vivo
  fluorescent labeling of macrophages extracted from the mouse abdominal cavity: can be labeled

## X-DQPDPGAVAAAAIFRAILEVLQTKAA ({code X}-DQPDPGAVAAAAIFRAILEVLQTKAA; reading uncertain; also: N-terminal reporter X, nature not defined) [r-KA27, Rat Triokinase/FMN cyclase C-terminal peptide probe, X = reporter or cysteine/lysine + reporter]
[1]
  recognition of macrophages in vivo: can effectively recognize macrophages in vivo
  fluorescent labeling of macrophages extracted from the mouse abdominal cavity: can be labeled
